According to US6365634B1, “Naturally occurring compounds and their derivatives as cyclooxygenase 2 and/or 5-lipoxygenase inhibitors” (C-P Technology Limited Partnership, priority 1997, dated 2002):

Legend:
human keratinocytes = experiment: Microscopic examination of treated keratinocyte cultures; type: cell-based
[1] = tested on: human keratinocyte PGE2 production; experiment: Cell-based COX II assay: PGE2 production by cultured human foreskin keratinocytes (enzyme immunoassay); conditions: 5, 1.0, 0.2 and 0.04 uM, 24 hours, high calcium medium
Method: The ability of dehydroabietic acid methyl ester to inhibit the enzymatic activities of COX II and 5-LO was tested using primary cultures of human foreskin keratinocytes. Briefly, human keratinocytes were plated in 48-well plates (Nunc) at an initial density of 2.5×10^4 cells per well. The cultures were maintained in medium 154XP (Cascade Biologics) to which human keratinocyte growth supplement (Cascade Biologics) was added. Cultures were plated initially in medium 154XP containing 0.07 mM CaCl2. Upon reaching […] confluency, the media was exchanged with high calcium medium 154XP containing 1.2 mM CaCl2. Previous studies have shown that an increase in extracellular Ca^2+concentration induces the differentiation of cultured keratinocytes with a concomitant increase in the expression of COX II protein and COX II mRNA with no apparent effect on COX I expression (Leong, J., Hughes-Fulford, M., Rakhlin, A., Maclouf, J., and Goldyne, M., (1996), Exp. Cell Res., V224, p79). Twenty-four hours after switching to the high calcium media, duplicate wells were treated with dehydroabietic acid methyl ester serially diluted in ethanol to produce final concentrations of 5, 1.0, 0.2, and 0.04 uM. Companion cultures were treated with an identical dilution series of the Merck COX II-specific inhibitor DFU. Twenty-four hours later, samples were removed from each treated well (as well as vehicle-treated control wells) and the amount of PGE2 (a product of the COX II pathway) was quantified using a PGE2-specific enzyme immunoassay (Cayman Chemical). ), As was done with the previously described biochemical assays (COX I, COX II, 5-LO, and 15-LO), the percent inhibition was calculated based on a comparison between vehicle treated control cultures and cultures treated with dehydroabietic acid methyl ester or DFU (see Fractionation and Bioassay Analysis of Fractions Derived from Extract-8 above).
The ability of 4-cumylphenol to inhibit the enzymatic activity of COX II was tested using primary cultures of human foreskin keratinocytes. These cell studies were performed in an identical manner to the studies described in Example 6. […] Twenty-four hours later, samples were removed from each treated well (as well as vehicle-treated control wells) and the amount of PGE2 (a product of the COX II pathway) was quantified using a PGE2-specific enzyme immunoassay (Cayman Chemical). ), as was done with the previously described COX I, COX II, and 15-LO biochemical assays (see Example 2B). The percent inhibition was calculated based on a comparison between vehicle treated control cultures and cultures treated with 4-cumylphenol or DFU. […]
To evaluate the biological activities of 3-methoxy aniline, sufficient quantities of the compound were synthesized as detailed in Example 1C (above). […]

CC(C)(c1ccccc1)c1ccc(O)cc1 [4-Cumylphenol, 4-cumylphenol]
toxicity when treated cultures were examined microscopically (human keratinocytes): lack of toxicity | inhibition of PGE2 production by cultured human keratinocytes [1]: inhibited the production of PGE2

COC(=O)[C@]1(C)CCC[C@]2(C)c3ccc(C(C)C)cc3CC[C@@H]12 [Dehydroabietic acid methyl ester, dehydroabietic acid methyl ester]
toxicity when treated cultures were examined microscopically (human keratinocytes): lack of toxicity | inhibition of PGE2 production by cultured human keratinocytes [1]: inhibited the production of PGE2
